Structures are written as SMILES.

This test deals with T1, mGlyT-1b (Mus musculus, UniProt P28571).
T1 construct: host or cells: Flp-in-CHO cells (vendor and catalogue number are those of the host cell line)
T1 sequence (P28571 1-651 isoform P28571-2): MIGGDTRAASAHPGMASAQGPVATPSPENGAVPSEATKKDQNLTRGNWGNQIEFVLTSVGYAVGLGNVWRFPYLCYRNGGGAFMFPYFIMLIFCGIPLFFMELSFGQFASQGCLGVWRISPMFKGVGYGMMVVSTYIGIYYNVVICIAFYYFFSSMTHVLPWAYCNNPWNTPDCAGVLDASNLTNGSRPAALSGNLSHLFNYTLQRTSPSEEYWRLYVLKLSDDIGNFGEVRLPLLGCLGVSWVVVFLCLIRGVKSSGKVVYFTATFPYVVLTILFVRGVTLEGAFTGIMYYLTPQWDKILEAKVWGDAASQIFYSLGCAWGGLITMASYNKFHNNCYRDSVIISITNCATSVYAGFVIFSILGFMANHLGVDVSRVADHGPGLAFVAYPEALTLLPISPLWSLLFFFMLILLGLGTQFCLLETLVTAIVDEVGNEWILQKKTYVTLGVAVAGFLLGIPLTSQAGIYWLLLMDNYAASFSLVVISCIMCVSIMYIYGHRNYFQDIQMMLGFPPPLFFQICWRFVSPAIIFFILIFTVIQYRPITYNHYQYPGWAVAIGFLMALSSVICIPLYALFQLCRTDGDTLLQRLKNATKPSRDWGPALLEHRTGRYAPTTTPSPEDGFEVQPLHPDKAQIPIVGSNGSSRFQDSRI
The experiment in a line: Glycine Uptake Inhibition Assay (mGlyT-1b). Format: cell-based. The conditions noted are these: inhibition of [3H]-glycine uptake in Flp-in-CHO cells transfected with mGlyT-1b cDNA; 20 min preincubation at 22° C.; read-out: IC50 (μM) at GlyT-1. As to the method:
DMEM complete medium: Nutrient mixture F-12 (Gibco Life-technologies), fetal bovine serum (FBS) 5%, (Gibco life technologies), Penicillin/Streptomycin 1% (Gibco life technologies), Hygromycin 0.6 mg/ml (Gibco life technologies), Glutamine 1 mM Gibco life technologies)
Uptake buffer (UB): 150 mM NaCl, 10 mM Hepes-Tris, pH 7.4, 1 mM CaCl2, 2.5 mM KCl, 2.5 mM MgSO4, 10 mM (+) D-glucose.
Flp-in™-CHO (Invitrogen Cat n° R758-07) cells stably transfected with mGlyT1b cDNA.
Glycine Uptake Inhibition Assay (mGlyT-1b)
On day 1 mammalian cells, (Flp-in™-CHO), transfected with mGlyT-1b cDNA, were plated at the density of 40,000 cells/well in complete F-12 medium, without hygromycin in 96-well culture plates. On day 2, the medium was aspirated and the cells were washed twice with uptake buffer (UB). The cells were then incubated for 20 min at 22° C. with either (i) no potential competitor, (ii) 10 mM non-radioactive glycine, (iii) a concentration of a potential inhibitor. A range of concentrations of the potential inhibitor was used to generate data for calculating the concentration of inhibitor resulting in 50% of the effect (e.g. IC50, the concentration of the competitor inhibiting glycine uptake of 50%). A solution was then immediately added containing [^3H]-glycine 60 nM (11–16 Ci/mmol) and 25 μM non-radioactive glycine. The plates were incubated with gentle shaking and the reaction was stopped by aspiration of the mixture and washing (three times) with ice-cold UB. The cells were lysed with scintillation liquid, shaken 3 hours and the radioactivity in the cells was counted using a scintillation counter.
For orientation: IC50 means the concentration that inhibits the measured activity by half. As to `Cc1sc(N2CCN(C(=O)c3cc(S(C)(=O)=O)ccc3OC(C)C(F)(F)F)CC2)nc1C(F)(F)F` (stereo not drawn) [Example 55, [5-Methanesulfonyl-2-(2,2,2-trifluoro-1-methyl-ethoxy)-phenyl]-[4-(5-methyl-4-trifluoromethyl-thiazol-2-yl)-piperazin-1-yl]-methanone], the half-inhibitory concentration (IC50) was found to be 0.073 µM.

For `C[C@H](Oc1ccc(S(C)(=O)=O)cc1C(=O)N1CCN(c2ncc(C(F)(F)F)s2)CC1)C(F)(F)F` [Example 67, [5-Methanesulfonyl-2-((S)-2,2,2-trifluoro-1-methyl-ethoxy)-phenyl]-[4-(5-trifluoromethyl-thiazol-2-yl)-piperazin-1-yl]-methanone], the half-maximal inhibitory concentration (IC50) turned out to be 0.046 µM.

As for `CC(C)COc1ccc(S(C)(=O)=O)cc1C(=O)N1CCN(c2ncc(S(=O)(=O)c3ccccc3)s2)CC1` [Example 31, [4-(5-Benzenesulfonyl-thiazol-2-yl)-piperazin-1-yl]-(2-isobutoxy-5-methanesulfonyl-phenyl)-methanone], the IC50 stood at 0.024 µM.

Regarding `CC(Oc1ccc(S(C)(=O)=O)cc1C(=O)N1CCN(c2ncc(C#N)s2)CC1)C(F)(F)F` (stereo not drawn) [Example 10, 2-{4-[5-Methanesulfonyl-2-(2,2,2-trifluoro-1-methyl-ethoxy)-benzoyl]-piperazin-1-yl}-thiazole-5-carbonitrile], the IC50 worked out at 0.082 µM.

For `CC(C)Sc1ccc(S(C)(=O)=O)cc1C(=O)N1CCN(c2ncc(C(F)(F)F)s2)CC1` [Example 84, (2-Isopropylsulfanyl-5-methanesulfonyl-phenyl)-[4-(5-trifluoromethyl-thiazol-2-yl)-piperazin-1-yl]-methanone], the IC50 came to 0.076 µM.

As for `CC[C@H](C)Oc1ccc(S(C)(=O)=O)cc1C(=O)N1CCN(c2ncc(C(F)(F)F)s2)CC1` [Example 78, (2-((S)-sec-Butoxy)-5-methanesulfonyl-phenyl)-[4-(5-trifluoromethyl-thiazol-2-yl)-piperazin-1-yl]-methanone], the IC50 came to 0.089 µM.

With `C[C@H](Oc1ccc(S(C)(=O)=O)cc1C(=O)N1CCN(c2ncc(CC(F)(F)F)s2)CC1)C(F)(F)F` [Example 70, [5-Methanesulfonyl-2-((S)-2,2,2-trifluoro-1-methyl-ethoxy)-phenyl]-{4-[5-(2,2,2-trifluoro-ethyl)-thiazol-2-yl]-piperazin-1-yl}-methanone], the IC50 worked out at 0.057 µM.

Take `Cc1nc(N2CCN(C(=O)c3cc(S(C)(=O)=O)ccc3O[C@H](C)C(F)(F)F)CC2)sc1C(F)(F)F` [Example 81, [5-Methanesulfonyl-2-((R)-2,2,2-trifluoro-1-methyl-ethoxy)-phenyl]-[4-(4-methyl-5-trifluoromethyl-thiazol-2-yl)-piperazin-1-yl]-methanone]: the IC50 turned out to be 0.044 µM.

In the case of `CC(C)Oc1ccc(S(C)(=O)=O)cc1C(=O)N1CCN(c2ncc(S(=O)(=O)c3ccccc3)s2)CC1` [Example 4, [4-(5-Benzenesulfonyl-thiazol-2-yl)-piperazin-1-yl]-(2-isopropoxy-5-methanesulfonyl-phenyl)-methanone], the IC50 turned out to be 0.061 µM.

Regarding `CS(=O)(=O)c1ccc(OCC2CCC2)c(C(=O)N2CCN(c3ncc(C#N)s3)CC2)c1` [Example 14, 2-[4-(2-Cyclobutylmethoxy-5-methanesulfonyl-benzoyl)-piperazin-1-yl]-thiazole-5-carbonitrile], the IC50 was 0.083 µM.

As for `CS(=O)(=O)c1ccc(OCC(F)(F)C(F)(F)F)c(C(=O)N2CCN(c3ncc(C(F)(F)F)s3)CC2)c1` [Example 103, [5-Methanesulfonyl-2-(2,2,3,3,3-pentafluoro-propoxy)-phenyl]-[4-(5-trifluoromethyl-thiazol-2-yl)-piperazin-1-yl]-methanone], the IC50 worked out at 0.006 µM.

`CNS(=O)(=O)c1ccc(OC2CCCC2)c(C(=O)N2CCN(c3nnc(C(F)(F)F)s3)CC2)c1` [Example 101, 4-Cyclopentyloxy-N-methyl-3-[4-(5-trifluoromethyl-[1,3,4]thiadiazol-2-yl)-piperazine-1-carbonyl]-benzenesulfonamide]: the IC50 was determined as 0.026 µM.

As to `C[C@@H](Oc1ccc(S(C)(=O)=O)cc1C(=O)N1CCN(c2ncc(CC(F)(F)F)s2)CC1)C(F)(F)F` [Example 71, [5-Methanesulfonyl-2-((R)-2,2,2-trifluoro-1-methyl-ethoxy)-phenyl]-{4-[5-(2,2,2-trifluoro-ethyl)-thiazol-2-yl]-piperazin-1-yl}-methanone], the IC50 stood at 0.069 µM.

For `CCS(=O)(=O)c1ccc(OC(C)C(F)(F)F)c(C(=O)N2CCN(c3ncc(C(F)(F)F)s3)CC2)c1` (stereo not drawn) [Example 74, [5-Ethanesulfonyl-2-(2,2,2-trifluoro-1-methyl-ethoxy)-phenyl]-[4-(5-trifluoromethyl-thiazol-2-yl)-piperazin-1-yl]-methanone], the IC50 was 0.031 µM.

For the compound `CC(C)(C)COc1ccc(S(C)(=O)=O)cc1C(=O)N1CCN(c2ncc(C#N)s2)CC1` [Example 19, 2-{4-[2-(2,2-Dimethyl-propoxy)-5-methanesulfonyl-benzoyl]-piperazin-1-yl}-thiazole-5-carbonitrile], the IC50 is 0.043 µM.

In the case of `CCCCS(=O)(=O)c1cnc(N2CCN(C(=O)c3cc(S(C)(=O)=O)ccc3OC3CCCC3)CC2)s1` [Example 41, {4-[5-(Butane-1-sulfonyl)-thiazol-2-yl]-piperazin-1-yl}-(2-cyclopentyloxy-5-methanesulfonyl-phenyl)-methanone], the IC50 was 0.018 µM.

For the compound `CC(Oc1ccc(S(C)(=O)=O)cc1C(=O)N1CCN(c2ncc(CC(F)(F)F)s2)CC1)C(F)(F)F` (stereo not drawn) [Example 69, [5-Methanesulfonyl-2-(2,2,2-trifluoro-1-methyl-ethoxy)-phenyl]-{4-[5-(2,2,2-trifluoro-ethyl)-thiazol-2-yl]-piperazin-1-yl}-methanone], the IC50 amounted to 0.056 µM.

As to `CNS(=O)(=O)c1ccc(OC2CCCC2)c(C(=O)N2CCN(c3nc(-c4ccccc4)ns3)CC2)c1` [Example 100, 4-Cyclopentyloxy-N-methyl-3-[4-(3-phenyl-[1,2,4]thiadiazol-5-yl)-piperazine-1-carbonyl]-benzenesulfonamide], the IC50 turned out to be 0.055 µM.

As for `CS(=O)(=O)c1ccc(OC2CCCC2)c(C(=O)N2CCN(c3ncc(S(=O)(=O)c4ccccc4)s3)CC2)c1` [Example 30, [4-(5-Benzenesulfonyl-thiazol-2-yl)-piperazin-1-yl]-(2-cyclopentyloxy-5-methanesulfonyl-phenyl)-methanone], the 50% inhibitory concentration (IC50) worked out at 0.023 µM.

Consider `CCCCS(=O)(=O)c1cnc(N2CCN(C(=O)c3cc(S(C)(=O)=O)ccc3OC(C)C(F)(F)F)CC2)s1` (stereo not drawn) [Example 39, {4-[5-(Butane-1-sulfonyl)-thiazol-2-yl]-piperazin-1-yl}-[5-methanesulfonyl-2-(2,2,2-trifluoro-1-methyl-ethoxy)-phenyl]-methanone], for which the half-maximal inhibitory concentration (IC50) was determined as 0.07 µM.

Regarding `CC(C)(Oc1ccc(S(C)(=O)=O)cc1C(=O)N1CCN(c2ncc(C(F)(F)F)s2)CC1)C(F)(F)F` [Example 66, [5-Methanesulfonyl-2-(2,2,2-trifluoro-1,1-dimethyl-ethoxy)-phenyl]-[4-(5-trifluoromethyl-thiazol-2-yl)-piperazin-1-yl]-methanone], the IC50 worked out at 0.061 µM.

For `CNS(=O)(=O)c1ccc(OC2CCCC2)c(C(=O)N2CCN(c3ncc(C#N)s3)CC2)c1` [Example 99, 3-[4-(5-Cyano-thiazol-2-yl)-piperazine-1-carbonyl]-4-cyclopentyloxy-N-methyl-benzenesulfonamide], the half-maximal inhibitory concentration (IC50) was 0.021 µM.

Consider `CC[C@@H](C)Oc1ccc(S(C)(=O)=O)cc1C(=O)N1CCN(c2ncc(C(F)(F)F)s2)CC1` [Example 77, (2-((R)-sec-Butoxy)-5-methanesulfonyl-phenyl)-[4-(5-trifluoromethyl-thiazol-2-yl)-piperazin-1-yl]-methanone], for which the concentration for half-maximal inhibition (IC50) was 0.1 µM.

`CC(Oc1ccc(S(C)(=O)=O)cc1C(=O)N1CCN(c2ncc(C(F)(F)F)s2)CC1)C(F)(F)F` (stereo not drawn) [Example 59, [5-Methanesulfonyl-2-(2,2,2-trifluoro-1-methyl-ethoxy)-phenyl]-[4-(5-trifluoromethyl-thiazol-2-yl)-piperazin-1-yl]-methanone]: the IC50 was found to be 0.098 µM.

These data come from US7220744B2, “Monocyclic substituted phenyl methanones” (Hoffman-La Roche Inc., priority 2005, dated 2007).
